Experiment: excess molar enthalpy (molar enthalpy of mixing); xn = mol fraction of the nth substance listed
Details: 298.15 K, 101 kPa, Liquid, Calvet calorimetry

CCCCCCCCCC [decane] + CCCO
Details | excess molar enthalpy [kcal/mol]
x2 = 0.1544 | 0.158
x2 = 0.1615 | 0.162
x2 = 0.2718 | 0.184
x2 = 0.3642 | 0.189
x2 = 0.4594 | 0.188
x2 = 0.5576 | 0.176
x2 = 0.6121 | 0.165
x2 = 0.6669 | 0.151
x2 = 0.7249 | 0.136
x2 = 0.7574 | 0.125
x2 = 0.7667 | 0.123
x2 = 0.8113 | 0.107
x2 = 0.8517 | 0.0894
x2 = 0.885 | 0.0741
x2 = 0.9219 | 0.0535
x2 = 0.9602 | 0.0292
x2 = 0.9832 | 0.0103

Source: the NIST ThermoML archive (doi:10.1016/j.fluid.2008.06.011)
